From patent US7625923B2, “Bicyclic modulators of androgen receptor function” (Bristol-Myers Squibb Company, priority 2004, dated 2009)

Legend:
[1] = target: glucocorticoid receptor (endogenous, A549 cells) (Homo sapiens, UniProt P04150); details: concentration ≦10 μM; 10 ng/mL PMA; 7 h at 37° C.
Protocol: The AP-1 assay is a cell-based luciferase reporter assay. A549 cells, which contain endogenous glucocorticoid receptor, were stably transfected with an AP-1 DNA binding site attached to the luciferase gene. Cells are then grown in RPMI+10% fetal calf serum (charcoal-treated)+Penicillin/Streptomycin with 0.5 mg/mL geneticin. Cells are plated the day before the assay at approximately 40000 cells/well. On assay day, the media is removed by aspiration and 20 μL assay buffer (RPMI without phenol red+10% FCS (charcoal-treated)+Pen/Strep) is added to each well. At this point either 20 μL assay buffer (control experiments), the compounds of the present invention (“test compounds”) (dissolved in DMSO and added at varying concentrations) or dexamethasome (100 nM in DMSO, positive control) are added to each well. The plates are then pre-incubated for 15 min at 37° C., followed by stimulation of the cells with 10 ng/mL PMA. The plates are then incubated for 7 h at 37° C. after which 40 μL luciferase substrate reagent is added to each well. Activity is measured by analysis in a luminometer as compared to control experiments treated with buffer or dexamethasome.

[2] = system: wild type AR (MDA 453 cells); details: read-out: Kd for [3H]-DHT, Scatchard analysis, 4 h at 37° C.
Protocol: For the whole-cell binding assay, human LNCaP cells (T877A mutant AR) or MDA 453 (wild type AR) in 96-well microtiter plates containing RPMI 1640 or DMEM supplemented with 10% charcoal stripped CA-FBS (Cocaleco Biologicals) respectively, were incubated at 37° C. to remove any endogenous ligand that might be complexed with the receptor in the cells.
For the saturation analysis, the difference between the total binding and the non-specific binding, was defined as specific binding. […] See e.g. D. Rodbard, Mathematics and statistics of ligand assays: an illustrated guide: In: J. Langon and J. J. Clapp, eds., Ligand Assay, Masson Publishing U.S.A., Inc., New York, pp. 45-99, (1981), the disclosure of which is herein incorporated by reference.
Two replicates were used for each sample.
[formula] After correcting for non-specific binding, IC50 values were determined. […] C2C12 Mouse Myoblast Transactivation Assay

[3] = target: T1, androgen receptor (Rattus norvegicus, UniProt P15207); details: castrated rats
T1 sequence (P15207 1-902): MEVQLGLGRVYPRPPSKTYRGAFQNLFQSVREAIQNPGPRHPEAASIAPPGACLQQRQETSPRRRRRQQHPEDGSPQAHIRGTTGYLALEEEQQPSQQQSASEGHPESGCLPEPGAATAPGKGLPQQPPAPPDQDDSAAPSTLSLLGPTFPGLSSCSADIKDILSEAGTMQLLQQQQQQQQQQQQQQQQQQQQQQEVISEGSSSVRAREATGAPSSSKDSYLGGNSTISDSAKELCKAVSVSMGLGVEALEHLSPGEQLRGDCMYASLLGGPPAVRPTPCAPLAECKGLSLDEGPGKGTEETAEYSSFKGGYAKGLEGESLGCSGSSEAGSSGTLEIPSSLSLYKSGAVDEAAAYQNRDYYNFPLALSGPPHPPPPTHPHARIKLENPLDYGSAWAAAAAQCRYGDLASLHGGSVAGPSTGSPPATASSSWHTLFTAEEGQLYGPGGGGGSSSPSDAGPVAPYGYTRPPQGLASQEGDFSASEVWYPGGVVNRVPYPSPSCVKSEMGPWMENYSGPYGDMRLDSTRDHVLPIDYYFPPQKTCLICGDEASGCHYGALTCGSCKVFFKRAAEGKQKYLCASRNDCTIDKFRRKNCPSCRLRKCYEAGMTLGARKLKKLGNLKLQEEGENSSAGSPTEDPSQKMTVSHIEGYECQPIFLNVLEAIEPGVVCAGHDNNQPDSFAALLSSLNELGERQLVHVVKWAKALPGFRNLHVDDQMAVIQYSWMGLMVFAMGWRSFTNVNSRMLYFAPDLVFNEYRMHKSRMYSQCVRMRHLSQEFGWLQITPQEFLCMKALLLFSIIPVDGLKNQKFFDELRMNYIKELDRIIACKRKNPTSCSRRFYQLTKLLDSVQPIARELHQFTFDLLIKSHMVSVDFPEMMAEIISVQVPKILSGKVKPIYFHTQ
Excerpt: The basis of this assay lies in the well-defined action of androgenic agents on the maintenance and growth of muscle tissues and sexual accessory organs in animals and man. […] As described above, the effects of androgens on maintenance of male sexual accessory organs, such as the prostate and seminal vesicles, is well described. Castration results in rapid involution and atrophy of the prostate and seminal vesicles. This effect can be reversed by exogenous addition of androgens. Since both the levator ani muscle and the male sex organs are the tissues most responsive to the effects of androgenic agents, this model is used to determine the androgen dependent reversal of atrophy in the levator ani muscle and the sex accessory organs in immature castrated rats. Sexually mature rats (200-250 g, 6-8 weeks-old, Sprague-Dawley, Harlan) were acquired castrated from the vendor (Taconic). The rats were divided into groups and treated daily for 7 to 14 days with one of the following: • 1. Control vehicle • 2. […] TP plus Bicalutamide (administered p.o. in PEGTW, QD), a recognized antiandrogen, as a reference compound. • 4.
At the end of the 7-14-day treatment, the animals were sacrificed by carbon dioxide, and the levator ani, seminal vesicle and ventral prostate weighed. […]

glucocorticoid receptor (endogenous, A549 cells), sequence (P04150 whole entry): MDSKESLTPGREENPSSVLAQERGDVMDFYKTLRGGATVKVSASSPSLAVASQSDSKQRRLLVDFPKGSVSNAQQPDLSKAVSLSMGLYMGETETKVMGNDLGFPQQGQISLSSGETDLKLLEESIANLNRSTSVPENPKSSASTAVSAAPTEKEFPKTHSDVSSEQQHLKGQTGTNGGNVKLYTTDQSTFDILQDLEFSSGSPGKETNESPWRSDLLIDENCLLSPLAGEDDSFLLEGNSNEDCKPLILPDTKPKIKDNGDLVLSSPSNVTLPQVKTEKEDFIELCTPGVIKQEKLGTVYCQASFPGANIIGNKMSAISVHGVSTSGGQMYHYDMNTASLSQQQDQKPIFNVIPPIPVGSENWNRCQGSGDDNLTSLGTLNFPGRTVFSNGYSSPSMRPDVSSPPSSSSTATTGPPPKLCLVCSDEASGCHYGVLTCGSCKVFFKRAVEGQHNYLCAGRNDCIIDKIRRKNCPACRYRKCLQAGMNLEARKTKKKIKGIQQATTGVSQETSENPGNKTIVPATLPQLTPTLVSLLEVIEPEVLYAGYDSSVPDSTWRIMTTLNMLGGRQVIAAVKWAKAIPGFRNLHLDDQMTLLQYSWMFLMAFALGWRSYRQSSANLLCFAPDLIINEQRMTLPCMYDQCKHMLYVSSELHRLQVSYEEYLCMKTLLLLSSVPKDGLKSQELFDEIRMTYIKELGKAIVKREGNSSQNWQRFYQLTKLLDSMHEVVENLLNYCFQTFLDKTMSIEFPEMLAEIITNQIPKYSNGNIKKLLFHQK

C[C@@H]1C[C@H]2[C@@H]3CCC4=CC(=O)C=C[C@]4(C)[C@@]3(F)[C@@H](O)C[C@]2(C)[C@@]1(O)C(=O)CO [dexamethasone]
% inhibition of the AP-1 reporter system vs buffer control with PMA alone [1]: 65%

tritiated dihydrotestosterone [[^3H]-DHT]
Kd [2]: 0.7 nM

CCC(=O)O[C@H]1CC[C@H]2[C@@H]3CCC4=CC(=O)CC[C@]4(C)[C@H]3CC[C@]12C [testosterone propionate, Testosterone Propionate]
EC50 (increase in organ weight) [3]: ~0.03 mg
